Measured values from PubChem BioAssay (NCI).
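Growth conditions: 96-well plates. Treatment: test compound, 48 hours, 5 concentrations. Analysis: linear interpolation between bracketing concentrations; unreached endpoints set to highest concentration. GI50: concentration for 50% inhibition of growth. Definition used: TGI = concentration required for complete inhibition of growth.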

What was measured:
Experiment in all cases: growth of human tumour cells (NCI), 48 h; in the data active means GI50 below about 0.43 µM; inactive means the rest
786-0 renal = tested on: 786-0 renal
A498 renal = tested on: A498 renal
A549 NSCLC = tested on: A549 NSCLC
ACHN renal = tested on: ACHN renal
BT-549 breast = tested on: BT-549 breast
CCRF-CEM leukemia = tested on: CCRF-CEM leukemia
COLO 205 colon = tested on: COLO 205 colon
DU-145 prostate = tested on: DU-145 prostate
EKVX NSCLC = tested on: EKVX NSCLC
HCC-2998 colon = tested on: HCC-2998 colon
HCT-116 colon = tested on: HCT-116 colon
HCT-15 colon = tested on: HCT-15 colon
HL-60(TB) leukemia = tested on: HL-60(TB) leukemia
HOP-62 NSCLC = tested on: HOP-62 NSCLC
HOP-92 NSCLC = tested on: HOP-92 NSCLC
HS 578T breast = tested on: HS 578T breast
HT29 colon = tested on: HT29 colon
IGROV1 ovarian = tested on: IGROV1 ovarian
K-562 leukemia = tested on: K-562 leukemia
KM12 colon = tested on: KM12 colon
LOX IMVI melanoma = tested on: LOX IMVI melanoma
M14 melanoma = tested on: M14 melanoma
MALME-3M melanoma = tested on: MALME-3M melanoma
MCF7 breast = tested on: MCF7 breast
MDA-MB-231 breast = tested on: MDA-MB-231 breast
MDA-MB-435 = tested on: MDA-MB-435
MOLT-4 leukemia = tested on: MOLT-4 leukemia
NCI-H226 lung = tested on: NCI-H226 lung
NCI-H23 lung = tested on: NCI-H23 lung
NCI-H460 lung = tested on: NCI-H460 lung
NCI/ADR-RES ovarian = tested on: NCI/ADR-RES ovarian
OVCAR-3 ovarian = tested on: OVCAR-3 ovarian
OVCAR-4 ovarian = tested on: OVCAR-4 ovarian
OVCAR-5 ovarian = tested on: OVCAR-5 ovarian
OVCAR-8 ovarian = tested on: OVCAR-8 ovarian
PC-3 prostate = tested on: PC-3 prostate
RPMI-8226 leukemia = tested on: RPMI-8226 leukemia
RXF 393 renal = tested on: RXF 393 renal
SF-268 CNS = tested on: SF-268 CNS
SF-295 CNS = tested on: SF-295 CNS
SF-539 CNS = tested on: SF-539 CNS
SK-MEL-2 melanoma = tested on: SK-MEL-2 melanoma
SK-MEL-28 melanoma = tested on: SK-MEL-28 melanoma
SK-MEL-5 melanoma = tested on: SK-MEL-5 melanoma
SK-OV-3 ovarian = tested on: SK-OV-3 ovarian
SN12C renal = tested on: SN12C renal
SNB-19 CNS = tested on: SNB-19 CNS
SNB-75 CNS = tested on: SNB-75 CNS
SR leukemia = tested on: SR leukemia
SW-620 colon = tested on: SW-620 colon
T-47D breast = tested on: T-47D breast
TK-10 renal = tested on: TK-10 renal
U251 CNS = tested on: U251 CNS
UACC-257 melanoma = tested on: UACC-257 melanoma
UACC-62 melanoma = tested on: UACC-62 melanoma
UO-31 renal = tested on: UO-31 renal

CCC(=O)O[C@@H]([C@H](C)[C@H]1OC(CC)=C(C)C(=O)[C@@H]1C)[C@@H](C)C(=O)CC
> 100 µM: TGI (786-0 renal) | TGI (A498 renal) | TGI (A549 NSCLC) | TGI (ACHN renal) | TGI (BT-549 breast) | TGI (CCRF-CEM leukemia) | TGI (COLO 205 colon) | TGI (DU-145 prostate) | TGI (EKVX NSCLC) | TGI (HCT-116 colon) | TGI (HCT-15 colon) | TGI (HL-60(TB) leukemia) | TGI (HOP-62 NSCLC) | TGI (HOP-92 NSCLC) | TGI (HS 578T breast) | TGI (HT29 colon) | TGI (IGROV1 ovarian) | TGI (K-562 leukemia) | TGI (KM12 colon) | TGI (LOX IMVI melanoma) | TGI (M14 melanoma) | TGI (MALME-3M melanoma) | TGI (MCF7 breast) | TGI (MDA-MB-231 breast) | TGI (MDA-MB-435) | TGI (MOLT-4 leukemia) | TGI (NCI-H226 lung) | TGI (NCI-H23 lung) | TGI (NCI-H460 lung) | TGI (NCI/ADR-RES ovarian) | TGI (OVCAR-4 ovarian) | TGI (OVCAR-5 ovarian) | TGI (OVCAR-8 ovarian) | TGI (PC-3 prostate) | TGI (RPMI-8226 leukemia) | TGI (RXF 393 renal) | TGI (SF-268 CNS) | TGI (SF-295 CNS) | TGI (SF-539 CNS) | TGI (SK-MEL-2 melanoma) | TGI (SK-MEL-28 melanoma) | TGI (SK-MEL-5 melanoma) | TGI (SK-OV-3 ovarian) | TGI (SN12C renal) | TGI (SNB-19 CNS) | TGI (SNB-75 CNS) | TGI (SR leukemia) | TGI (SW-620 colon) | TGI (T-47D breast) | TGI (TK-10 renal) | TGI (U251 CNS) | TGI (UACC-257 melanoma) | TGI (UACC-62 melanoma) | TGI (UO-31 renal)
active: GI50 (HCC-2998 colon) 0.183 µM | GI50 (OVCAR-3 ovarian) 0.0316 µM
47 µM: TGI (HCC-2998 colon)
inactive: GI50 (786-0 renal) > 100 µM | GI50 (A498 renal) 88.9 µM | GI50 (A549 NSCLC) > 100 µM | GI50 (ACHN renal) > 100 µM | GI50 (BT-549 breast) 90.2 µM | GI50 (CCRF-CEM leukemia) > 100 µM | GI50 (COLO 205 colon) 68.6 µM | GI50 (DU-145 prostate) > 100 µM | GI50 (EKVX NSCLC) > 100 µM | GI50 (HCT-116 colon) 55.6 µM | GI50 (HCT-15 colon) > 100 µM | GI50 (HL-60(TB) leukemia) 37.4 µM | GI50 (HOP-62 NSCLC) > 100 µM | GI50 (HOP-92 NSCLC) > 100 µM | GI50 (HS 578T breast) 96.8 µM | GI50 (HT29 colon) 53.6 µM | GI50 (IGROV1 ovarian) 19.9 µM | GI50 (K-562 leukemia) 61.6 µM | GI50 (KM12 colon) 60.1 µM | GI50 (LOX IMVI melanoma) > 100 µM | GI50 (M14 melanoma) > 100 µM | GI50 (MALME-3M melanoma) > 100 µM | GI50 (MCF7 breast) > 100 µM | GI50 (MDA-MB-231 breast) > 100 µM | GI50 (MDA-MB-435) > 100 µM | GI50 (MOLT-4 leukemia) 60 µM | GI50 (NCI-H226 lung) > 100 µM | GI50 (NCI-H23 lung) 37.8 µM | GI50 (NCI-H460 lung) 78.7 µM | GI50 (NCI/ADR-RES ovarian) 31.7 µM | GI50 (OVCAR-4 ovarian) 40.8 µM | GI50 (OVCAR-5 ovarian) 32.7 µM | GI50 (OVCAR-8 ovarian) > 100 µM | GI50 (PC-3 prostate) 59.6 µM | GI50 (RPMI-8226 leukemia) 66.8 µM | GI50 (RXF 393 renal) > 100 µM | GI50 (SF-268 CNS) > 100 µM | GI50 (SF-295 CNS) > 100 µM | GI50 (SF-539 CNS) > 100 µM | GI50 (SK-MEL-2 melanoma) > 100 µM | GI50 (SK-MEL-28 melanoma) > 100 µM | GI50 (SK-MEL-5 melanoma) 53.6 µM | GI50 (SK-OV-3 ovarian) > 100 µM | GI50 (SN12C renal) > 100 µM | GI50 (SNB-19 CNS) > 100 µM | GI50 (SNB-75 CNS) > 100 µM | GI50 (SR leukemia) 92.4 µM | GI50 (SW-620 colon) > 100 µM | GI50 (T-47D breast) 23.6 µM | GI50 (TK-10 renal) > 100 µM | GI50 (U251 CNS) > 100 µM | GI50 (UACC-257 melanoma) > 100 µM | GI50 (UACC-62 melanoma) 60.8 µM | GI50 (UO-31 renal) > 100 µM
0.751 µM: TGI (OVCAR-3 ovarian)
